Data set [1] concerns the target T1, PAK4 kinase activity in whole cells (TR-293-KDG, modified HEK 293) (Homo sapiens, UniProt O96013).
T1 construct: engineered to overexpress both GEF-H1b and the kinase domain (KD) of PAK4; expressed in transfected cells; host or cells: TR-293-KDG (modified HEK 293, Trex system, Invitrogen)
Put plainly: PAK4 cellular assay: sandwich ELISA of PAK4-dependent phosphorylation of GEF-H1b in TR-293-KDG cells. The data set is classed as cell-based. The settings on record: 3-hour exposure. (In general: An ELISA detects its analyte on a solid surface through an enzyme-linked reagent.)
Protocol: A sandwich ELISA method was used to measure the PAK4 kinase activity in whole cells. The level of PAK4-dependent phosphorylation of GEF-H1b can be determined by monitoring the binding of a phosphospecific antibody to GEF-H1b. […] The KD of PAK4 is inducible in this cell line by tetracycline (Trex system, Invitrogen). […] To establish a phosphorylation event on GEF-HL, cells are induced with doxycycline to express the PAK4 KD. […] Candidate substance effect is measured as the ability to block this phosphorylation event.
ELISA plate was prepared by pre-coating the plates with a capture antibody (α-HA-tag mouse monoclonal antibody), blocked with BSA, and washed in 0.1% tween 20 in tris-buffered saline (TBST). […] Cells were then lysed with a modified RIPA buffer supplemented with protease inhibitors. […] Between all subsequent steps plates were washed 4 times with TBST. Detection antibody (recognizing the phospho-specific eptitope on GEF-H1b) was added for 1 hour, followed by addition of an enzyme linked goat α-rabbit secondary antibody for 45 minutes. […] EC50 values were calculated by sigmoid curve fitting using a four-parameter analysis.

Data set [2] addresses T2, PAK4 Kinase domain (PAK4 KD) (Homo sapiens, UniProt O96013).
T2 construct: Cloning, expression, and purification of recombinant PAK4 Kinase domain (PAK4 KD); His tag (pET28a(+)/pET24a(+), Ni-NTA purification) (N, cleaved yes); GST (pGST4.5, glutathione column) (N, cleaved yes); made in house; host or cells: E. coli BL21(DE3)
Briefly: PAK4 kinase domain enzymatic assay (PK/LDH-coupled, Ki). The format is biochemical. The settings on record: PAK4 Kinase Domain.

For data set [3], the system named is HCT116 human colorectal carcinoma tumor xenografts. Briefly: Tumor growth inhibition and tumor growth delay of HCT116 xenografts in athymic mice. The format is in vivo. The following applies: for Tumor growth inhibition (TGI) % TGImax d39 / Tumor growth delay T-C1250 mm3: oral gavage; for Tumor growth inhibition (TGI) % TGImax d39: day 39, vs vehicle; for Tumor growth delay T-C1250 mm3: evaluation size 1250 mm3. The protocol: Material and preparation: The HCT116 cell line was obtained from American Type Culture Collection (ATCC, Bethesda, Md.). Cells were grown as monolayers in McCoy's media each supplemented with 10% FBS (each from Life Technologies, Inc., Bethesda, Md.) and maintained at 37° C. in a humidified atmosphere at 5% CO2. Tumor cells for implantation into athymic mice were harvested near confluence by incubation with 0.05% Trypsin-EDTA. Cells were pelleted at 450×g for 5-10 minutes and the cell pellets were re-suspended in serum-free McCoy's medium supplemented with 50% matrigel. Tumor cells (1×10^6 cells/animal) were implanted s.c. into the hindflank region of each mouse on day 0 and allowed to grow to the designated size prior to the administration of compound for each experiment.
Tumor growth inhibition: Treatment was initiated when tumors were approximately 200 mm3 in size. Compound of Example 2 or vehicle (methyl cellulose, MC) was administered as an oral gavage daily or every other day at 10 mL/kg. Tumors were measured using Vernier calipers, and tumor volumes were calculated utilizing the formula length×width2×0.4. Tumor volume was measured on the indicated days, with the median tumor volume indicated for each group of 12 animals; median±SEM. At the end of the study, the maximum percent tumor growth inhibition was calculated as 100×(tumor volumefinal−tumor volumeinitial) for Compound 1f Example 2-treated group/(tumor volumefinal−tumor volumeinitial) for vehicle group on day 39 and tumor growth delay was calculated as median […] when median tumor volume reached 1250 mm^3.
Tumor growth delay: Treatment with Compound of Example 2 began on day 11 when tumors reached a volume of ˜200 mm^3 and continued for 28 days until the control tumors reached evaluation size (1250 mm^3). Tumor measurement continued until treated tumors reached evaluation size (1250 mm^3) in order to assess tumor growth delay. Compound of Example 2 was administered to tumor-bearing mice by oral gavage as a solution in MC in 10 mL/kg volume and compared with vehicle alone administered in the same volume.

Values joined by “and” are separate entries in the source; they are usually repeats but may differ in a detail not shown here. Identical values can stand only once. “Also recorded” adds a separate entry of the source.

What is called EC50 is the midpoint of the concentration-response curve. A high value points to weaker potency. As usually defined, the Ki is a dissociation constant, usually derived from enzyme kinetics or from competition with a known ligand. Read a high Ki as a looser hold on the target.

T1 sequence (O96013 321-572 limits assumed): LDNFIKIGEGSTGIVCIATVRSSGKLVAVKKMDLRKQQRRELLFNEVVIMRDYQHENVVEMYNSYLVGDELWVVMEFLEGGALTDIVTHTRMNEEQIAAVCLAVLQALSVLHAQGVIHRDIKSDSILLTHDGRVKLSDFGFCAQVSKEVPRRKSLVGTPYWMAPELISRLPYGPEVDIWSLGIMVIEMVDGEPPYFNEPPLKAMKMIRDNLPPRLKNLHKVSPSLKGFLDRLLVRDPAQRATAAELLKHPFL
T2 sequence (O96013 321-572 limits assumed): as above

Turning to `CN(C)C[C@@H](OC(=O)N1Cc2c(NC(=O)c3ccc(F)cc3)n[nH]c2C1(C)C)c1ccccc1` [Example 2, (1S)-2-(dimethylamino)-1-phenylethyl 3-[(4-fluorobenzoyl)amino]-6,6-dimethyl-4,6-dihydropyrrolo[3,4-c]pyrazole-5(1H)-carboxylate], in data set [1], it took 9.7 nM to reach a half-maximal effect (EC50). In data set [2], this compound displayed a Ki of 16.7 nM. Moreover, the “Tumor growth inhibition (TGI) % TGImax d39” value was 50% in data set [3] (50 mg/kg QD); 37% and 36.6% in data set [3] (75 mg/Kg/QOD). The “Tumor growth delay T-C1250 mm3” value in data set [3] (50 mg/kg QD) worked out at 12.2 days; in data set [3] (75 mg/Kg/QOD), 9.8 days. The “in vivo tumor growth inhibition/delay (in words)” value in data set [3] (HCT116 xenografts in athymic mice, oral) is “showed in vivo tumor growth inhibition; also recorded: inhibited/delayed growth”. The “general health and body weight of treated mice” value in data set [3] (throughout the 28 day treatment cycle, oral) was “generally appeared healthy and continued to gain weight”.
In data set [1], `CN(C)C[C@@H](OC(=O)N1Cc2c(NC(=O)c3ccno3)n[nH]c2C1(C)C)c1ccccc1` [Example 85, (S)-2-(dimethylamino)-1-phenylethyl 3-(isoxazole-5-carboxamido)-6,6-dimethylpyrrolo[3,4-c]pyrazole-5(1H,4H,6H)-carboxylate] registered an EC50 of 4 nM. The Ki in data set [2] was 143 nM.
In the case of `Cc1cc(C(=O)Nc2n[nH]c3c2CN(C(=O)O[C@H](CN(C)C)c2ccccc2)C3(C)C)no1` [Example 86, (S)-2-(dimethylamino)-1-phenylethyl 6,6-dimethyl-3-(5-methylisoxazole-3-carboxamido)pyrrolo[3,4-c]pyrazole-5(1H,4H,6H)-carboxylate], the EC50 in data set [1] was 18 nM. Besides, in data set [2], the Ki is 68.7 nM.
On to `COc1ccc(CC(=O)Nc2n[nH]c3c2CN(C(=O)O[C@H](CN(C)C)c2ccccn2)C3(C)C)cc1` [Example 88, (1R)-2-(dimethylamino)-1-pyridin-2-ylethyl 3-{[(4-methoxyphenyl)-acetyl]amino}-6,6-dimethyl-4,6-dihydropyrrolo[3,4-c]pyrazole-5(1H)-carboxylate], for which, in data set [1], the midpoint of the response, the EC50, lay at 88 nM. This compound also showed a Ki in data set [2] of 35.6 nM.
Taken in the same sequence, the figures for `CN(C)C[C@@H](OC(=O)N1Cc2c(NC(=O)[C@H]3CCCO3)n[nH]c2C1(C)C)c1ccccc1` [Example 89, (S)-2-(dimethylamino)-1-phenylethyl 6,6-dimethyl-3-((R)-tetrahydrofuran-2-carboxamido)pyrrolo[3,4-c]pyrazole-5(1H,4H,6H)-carboxylate] were 10 nM and 156 nM.
For `CO[C@@H](C)C(=O)Nc1n[nH]c2c1CN(C(=O)O[C@H](CN(C)C)c1ccccc1)C2(C)C` [Example 90, (S)-2-(dimethylamino)-1-phenylethyl 3-((S)-2-methoxypropanamido)-6,6-dimethylpyrrolo[3,4-c]pyrazole-5(1H,4H,6H)-carboxylate], a half-maximal effect in data set [1] (EC50) was put at 4 nM. For the same compound, the affinity in data set [2], expressed as Ki, was 251 nM.
As for `CN(C)C[C@@H](OC(=O)N1Cc2c(NC(=O)[C@@H]3CCCO3)n[nH]c2C1(C)C)c1ccccc1` [Example 92, (S)-2-(dimethylamino)-1-phenylethyl 6,6-dimethyl-3-((S)-tetrahydrofuran-2-carboxamido)pyrrolo[3,4-c]pyrazole-5(1H,4H,6H)-carboxylate], in data set [1], the half-maximal effective concentration (EC50) was 103 nM. The compound further returned a Ki in data set [2] of 345 nM.
Consider `CN(C)CC(OC(=O)N1Cc2c(NC(=O)c3ccc(F)cc3)n[nH]c2C1(C)C)c1nccs1` (centres unmarked) [Example 93, 2-(dimethylamino)-1-(thiazol-2-yl)ethyl 3-(4-fluorobenzamido)-6,6-dimethylpyrrolo[3,4-c] pyrazole-5(1H,4H,6H)-carboxylate], for which the EC50 in data set [1] was determined as 178 nM. For the same compound, the affinity in data set [2] corresponds to a Ki of 335 nM.
In turn, `CN(C)CC(OC(=O)N1Cc2c(NC(=O)c3ccc(F)cc3)n[nH]c2C1(C)C)c1cccc2cccnc12` (centres unmarked) [Example 94, 2-(dimethylamino)-1-(quinolin-8-yl)ethyl 3-(4-fluorobenzamido)-6,6-dimethylpyrrolo[3,4-c] pyrazole-5(1H,4H,6H)-carboxylate] showed an EC50 in data set [1] of 413 nM. Further, the Ki in data set [2] stood at 161 nM.
Take `CN(C)CC(OC(=O)N1Cc2c(NC(=O)c3ccc(F)cc3)n[nH]c2C1(C)C)c1ccc(C#N)cc1` (centres unmarked) [Example 95, 1-(4-cyanophenyl)-2-(dimethylamino)ethyl 3-(4-fluorobenzamido)-6,6-dimethylpyrrolo[3,4-c] pyrazole-5(1H,4H,6H)-carboxylate]: the EC50 in data set [1] turned out to be 127 nM. Also, in data set [2], the Ki stood at 137 nM.
`CN(C)C[C@@H](NC(=O)N1Cc2c(NC(=O)c3cccc(Oc4ccccc4)c3)n[nH]c2C1(C)C)c1ccccc1` [Example 96, N-[(1S)-2-(dimethylamino)-1-phenylethyl]-6,6-dimethyl-3-[(3-phenoxybenzoyl)amino]-4,6-dihydropyrrolo[3,4-c]pyrazole-5(1H)-carboxamide] returned an EC50 in data set [1] of 59 nM. Besides, the affinity in data set [2], expressed as Ki, was 12.5 nM.
As to `CN(C)CC(CC(=O)N1Cc2c(NC(=O)c3cccs3)n[nH]c2C1(C)C)c1ccc(Cl)cc1` (centres unmarked) [Example 97, N-{5-[3-(4-chlorophenyl)-4-(dimethylamino)butanoyl]-6,6-dimethyl-1,4,5,6-tetrahydropyrrolo[3,4-c]pyrazol-3-yl}thiophene-2-carboxamide], a half-maximal effect in data set [1] (EC50) was put at 1510 nM. In data set [2], the Ki was 110 nM.
In data set [1], `CC1(C)c2[nH]nc(NC(=O)c3cc4ccccc4s3)c2CN1C(=O)N[C@H](CO)c1ccccc1` [Example 99, 3-[(1-benzothien-2-ylcarbonyl)amino]-N-[(1S)-2-hydroxy-1-phenylethyl]-6,6-dimethyl-4,6-dihydropyrrolo[3,4-c]pyrazole-5(1H)-carboxamide] gave an EC50 of 423 nM. In addition, affinity in data set [2] was put at a Ki of 67.9 nM.
In the same order, the values of `CC1(C)c2[nH]nc(NC(=O)c3cccs3)c2CN1C(=O)N[C@H](CO)c1ccccc1` [Example 100, N-[(1S)-2-hydroxy-1-phenylethyl]-6,6-dimethyl-3-[(2-thienylcarbonyl)amino]-4,6-dihydropyrrolo[3,4-c]pyrazole-5(1H)-carboxamide] are 178 nM and 108 nM.
In turn, `CN(C)C[C@@H](NC(=O)N1Cc2c(NC(=O)c3nc4ccccc4s3)n[nH]c2C1(C)C)c1ccccc1` [Example 104, (S)-N-(5-((2-(dimethylamino)-1-phenylethyl)carbamoyl)-6,6-dimethyl-1,4,5,6-tetrahydropyrrolo[3,4-c]pyrazol-3-yl)benzo[d]thiazole-2-carboxamide] had an EC50 in data set [1] of 9 nM. Also, the affinity in data set [2] corresponds to a Ki of 89 nM.
On to `COC(C)(C)C(=O)Nc1n[nH]c2c1CN(C(=O)O[C@H](CN(C)C)c1ccccc1)C2(C)C` [Example 116, (S)-2-(dimethylamino)-1-phenylethyl 3-(2-methoxy-2-methylpropanamido)-6,6-dimethylpyrrolo[3,4-c]pyrazole-5(1H,4H, 6H)-carboxylate], for which the half-maximal effective concentration (EC50) in data set [1] stood at 50 nM. Affinity in data set [2] was put at a Ki of 212 nM.
As to `CO[C@H](C)C(=O)Nc1n[nH]c2c1CN(C(=O)O[C@H](CN(C)C)c1ccccc1)C2(C)C` [Example 117, (S)-2-(dimethylamino)-1-phenylethyl 3-((R)-2-methoxypropanamido)-6,6-dimethylpyrrolo[3,4-c]pyrazole-5(1H,4H,6H)-carboxylate], it took 8.8 nM to reach a half-maximal effect in data set [1] (EC50). The same compound came in with a Ki in data set [2] of 357 nM.
Turning to `CN(C)C[C@@H](OC(=O)N1Cc2c(NC(=O)C3CCOC3)n[nH]c2C1(C)C)c1ccccc1` (stereo partly drawn) [Example 119, (S)-2-(dimethylamino)-1-phenylethyl 6,6-dimethyl-3-(tetrahydrofuran-3-carboxamido)pyrrolo[3,4-c]pyrazole-5(1H,4H,6H)-carboxylate], the EC50 in data set [1] amounted to 52 nM. The same compound gave a Ki in data set [2] of 260 nM.
In the case of `CNC[C@@H](OC(=O)N1Cc2c(NC(=O)c3ccc(F)cc3)n[nH]c2C1(C)C)c1ccccc1` [Example 121, (S)-2-(methylamino)-1-phenylethyl 3-(4-fluorobenzamido)-6,6-dimethylpyrrolo[3,4-c]pyrazole-5(1H,4H,6H)-carboxylate], in data set [1], it took 124 nM to reach a half-maximal effect (EC50). In data set [2], the Ki turned out to be 16.2 nM.

These data come from patent US7884117B2, “Carbonylamino pyrrolopyrazoles, potent kinase inhibitors” (Pfizer Inc., priority 2005, dated 2011).
